The target of this assay is T1, γ-secretase, Aβ(1-42) production, SH-SY5Y neuroblastoma cells overexpressing SPA4CT (Homo sapiens, UniProt P49768).
T1 construct: Human SH-SY5Y neuroblastoma cells overexpressing the direct γ-secretase substrate SPA4CT; endogenous in cells; host or cells: human SH-SY5Y neuroblastoma cells stably overexpressing the substrate SPA4CT, induced with sodium butyrate
Put plainly: Cell-Based γ-Secretase Assay, Aβ(42) detection. Conditions: overnight incubation, read-out: IC50 values for Aβ(1-42) inhibition. The method, then:
Cell-Based γ-Secretase Assay
Human SH-SY5Y neuroblastoma cells overexpressing the direct γ-secretase substrate SPA4CT were induced with sodium butyrate (10 mM) for 4 hours prior to plating. Cells were plated at 35,000 cells/well/100 μl in 96-well plates in phenol red-free MEM/10% FBS, 50 mM HEPES, 1% Glutamine and incubated for 2 hrs at 37° C., 5% CO2.
Compounds for testing were diluted into Me2SO to give a ten point dose-response curve. Typically 10 μl of these diluted compounds in Me2SO were further diluted into 182 μl dilution buffer (phenol red-free MEM/10% FBS, 50 mM HEPES, 1% Glutamine) and 10 μl of each dilution was added to the cells in 96-well plates (yielding a final Me2SO concentration of 0.5%). Appropriate vehicle and inhibitor controls were used to determine the window of the assay.
After incubation overnight at 37° C., 5% CO2, 25 μl and 50 μl media were transferred into a standard Meso avidin-coated 96-well plate for detection of Aβ(40) and Aβ(42) peptides, respectively. 25 μl Meso Assay buffer (PBS, 2% BSA, 0.2% Tween-20) was added to the Aβ(40) wells followed by the addition of 25 μl of the respective antibody premixes to the wells:
Aβ(42) premix: 1 μg/ml ruthenylated G2-11 antibody, 4 μg/ml biotinylated 4G8 antibody diluted in Origen buffer
(Biotinylated 4G8 antibody supplied by Signet Pathology Ltd; G2-10 and G2-11 antibodies supplied by Chemicon)
After overnight incubation of the assay plates on a shaker at 4° C., the Meso Scale Sector 6000 Imager was calibrated according to the manufacturer's instructions. After washing the plates 3 times with 150 μl of PBS per well, 150 μl Meso Scale Discovery read buffer was added to each well and the plates were read on the Sector 6000 Imager according to the manufacturer's instructions.
LD50 and IC50 values for inhibition of Aβ(40) and Aβ(42) were calculated by nonlinear regression fit analysis using the appropriate software (eg. Excel fit). The total signal and the background were defined by the corresponding Me2SO and inhibitor controls.
As a reminder, the IC50 is the midpoint of a concentration-inhibition curve. On to `Cc1ccc(C(C)(C)C)cc1Nc1nc(N2CCC(n3ccnn3)CC2)ncc1F` [Example 1, N-(5-tert-butyl-2-methylphenyl)-5-fluoro-2-[4-(1H-1,2,3-triazol-1-yl)piperidin-1-yl]pyrimidin-4-amine], for which the IC50 was 3 to 6 µM. For the compound `CCN(CC)c1ccc(Nc2ccnc(N3CCC4(CCCN4)CC3)n2)c(C)c1` [Example 4, N1-[2-(1,8-diazaspiro[4.5]dec-8-yl)pyrimidin-4-yl]-N4,N4-diethyl-2-methylbenzene-1,4-diamine], the IC50 lay within 3 to 6 µM. Consider `CCN(CC)c1ccc(Nc2ccnc(N3CCC(n4ccnc4)CC3)n2)c(C)c1` [Example 7, N4,N4-diethyl-N1-{2-[4-(1H-imidazol-1-yl)piperidin-1-yl]pyrimidin-4-yl}-2-methylbenzene-1,4-diamine], for which the half-inhibitory concentration (IC50) lay within 3 to 6 µM. Take `CCN(CC)c1ccc(Nc2ccnc(N3CCC(n4ccnn4)CC3)n2)c(C)c1` [Example 8, N4,N4-diethyl-2-methyl-N1-{2-[4-(1H-1,2,3-triazol-1-yl)piperidin-1-yl]pyrimidin-4-yl}benzene-1,4-diamine]: the IC50 was in the range of 3 to 6 µM.

Take `CCOc1cc(C)c(Nc2ccnc(N3CCC(n4ccnn4)CC3)n2)cc1C(C)C` [Example 10, N-(4-ethoxy-5-isopropyl-2-methylphenyl)-2-[4-(1H-1,2,3-triazol-1-yl)piperidin-1-yl]pyrimidin-4-amine]: the IC50 lay in the range of 0.5 to 1.5 µM. Turning to `CCOc1cc(C)c(Nc2ccnc(N3CCC(n4ccnc4)CC3)n2)cc1C(C)C` [Example 11, N-(4-ethoxy-5-isopropyl-2-methylphenyl)-2-[4-(1H-1,2,3-imidazol-1-yl)piperidin-1-yl]pyrimidin-4-amine], the concentration for half-maximal inhibition (IC50) is less than 0.5 µM. For `Cc1ccc(C(C)C)cc1Nc1ccnc(N2CCC(n3ccnn3)CC2)n1` [Example 12, N-(5-isopropyl-2-methylphenyl)-2-[4-(1H-1,2,3-triazol-1-yl)piperidin-1-yl]pyrimidin-4-amine], the half-inhibitory concentration (IC50) lay within 3 to 6 µM.

`CCN(CC)c1ccc(Nc2ccnc(N3CCC(c4nnc(-c5ccccc5)o4)CC3)n2)c(C)c1` [Example 14, N4,N4-diethyl-2-methyl-N1-{2-[4-(5-phenyl-1,3,4-oxadiazol-2-yl)piperidin-1-yl]pyrimidin-4-yl}benzene-1,4-diamine]: the concentration for half-maximal inhibition (IC50) is 1.5 to 3 µM. `Cc1ccc(C(C)(C)C)cc1Nc1ccnc(N2CCC(n3ccnn3)CC2)n1` [Example 15, N-(5-tert-butyl-2-methylphenyl)-2-[4-(1H-1,2,3-triazol-1-yl)piperidin-1-yl]pyrimidin-4-amine]: the concentration for half-maximal inhibition (IC50) fell in the range of 0.5 to 1.5 µM. On to `Cc1ccc(C(C)(C)C)cc1Nc1ccnc(N2CCC(n3ccnc3)CC2)n1` [Example 16, N-(5-tert-butyl-2-methylphenyl)-2-[4-(1H-imidazol-1-yl)piperidin-1-yl]pyrimidin-4-amine], for which the IC50 fell in the range of 0.5 to 1.5 µM. Consider `Cc1ccc(C(C)(C)C)cc1Nc1nc(N2CCC(n3ccnc3)CC2)ncc1F` [Example 17, N-(5-tert-butyl-2-methylphenyl)-5-fluoro-2-[4-(1H-imidazol-1-yl)piperidin-1-yl]pyrimidin-4-amine], for which the IC50 fell in the range of 3 to 6 µM.

For `Cc1ccc(C(C)(C)C)cc1Nc1cc(S(C)(=O)=O)nc(N2CCC(n3ccnc3)CC2)n1` [Example 18, N-(5-tert-butyl-2-methylphenyl)-2-[4-(1H-imidazol-1-yl)piperidin-1-yl]-6-(methylsulfonyl)pyrimidin-4-amine], the IC50 lay within 3 to 6 µM. For the compound `CCOc1cc(C)c(Nc2nc(N3CCC(n4ccnn4)CC3)ncc2Cl)cc1C(C)C` [Example 19, 5-chloro-N-(4-ethoxy-5-isopropyl-2-methylphenyl)-2-[4-(1H-1,2,3-triazol-1-yl)piperidin-1-yl]pyrimidin-4-amine], the IC50 lay in the range of 1.5 to 3 µM. `CCOc1cc(C)c(Nc2nc(N3CCC(n4ccnc4)CC3)ncc2Cl)cc1C(C)C` [Example 20, 5-chloro-N-(4-ethoxy-5-isopropyl-2-methylphenyl)-2-[4-(1H-imidazol-1-yl)piperidin-1-yl]pyrimidin-4-amine]: the IC50 fell in the range of 1.5 to 3 µM. Turning to `CCOc1cc(C)c(Nc2nc(N3CCC(n4ccnn4)CC3)ncc2F)cc1C(C)C` [Example 21, N-(4-ethoxy-5-isopropyl-2-methylphenyl)-5-fluoro-2-[4-(1H-1,2,3-triazol-1-yl)piperidin-1-yl]pyrimidin-4-amine], the IC50 was 0.5 to 1.5 µM. On to `CCOc1cc(C)c(Nc2nc(N3CCC(n4ccnc4)CC3)ncc2F)cc1C(C)C` [Example 22, N-(4-ethoxy-5-isopropyl-2-methylphenyl)-5-fluoro-2-[4-(1H-imidazol-1-yl)piperidin-1-yl]pyrimidin-4-amine], for which the 50% inhibitory concentration (IC50) was in the range of 0.5 to 1.5 µM. Turning to `CCOc1cc(C)c(Nc2nc(N3CCC(n4cc(C)nn4)CC3)ncc2Cl)cc1C(C)C` [Example 23, 5-chloro-N-(4-ethoxy-5-isopropyl-2-methylphenyl)-2-[4-(4-methyl-1H-1,2,3-triazol-1-yl)piperidin-1-yl]pyrimidin-4-amine], the 50% inhibitory concentration (IC50) fell in the range of 1.5 to 3 µM. For `CCOc1cc(C)c(Nc2cc(C(=O)OC)nc(N3CCC(n4ccnc4)CC3)n2)cc1C(C)C` [Example 24] the value was less than 0.5 µM. For `CCOc1cc(C)c(Nc2cc(CO)nc(N3CCC(n4ccnc4)CC3)n2)cc1C(C)C` [Example 25, {6-[(4-ethoxy-5-isopropyl-2-methylphenyl)amino]-2-[4-(1H-imidazol-1-yl)piperidin-1-yl]pyrimidin-4-yl}methanol] the value was less than 0.5 µM.
